TGI data for seven compounds are collected here from PubChem BioAssay (NCI).

Among the test systems are A549 NSCLC; SK-MEL-5 melanoma; KM12 colon; HOP-92 NSCLC; UACC-62 melanoma; HCT-15 colon; OVCAR-5 ovarian; OVCAR-8 ovarian; NCI-H522 lung; NCI-H23 lung; ACHN renal; MALME-3M melanoma; SF-295 CNS; SNB-75 CNS; HS 578T breast; OVCAR-4 ovarian; RPMI-8226 leukemia; T-47D breast; 786-0 renal.
Common to all, as to experiment: growth of human tumour cells (NCI), 48 h

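All cell lines were grown in 96-well plates and treated with compound for 48 hours. At the TGI there is no net growth.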

On to `COC(=O)[C@@H]1C=C[C@H](OC2OC(COC(C)=O)C(OC(C)=O)C(OC(C)=O)C2OC(C)=O)n2c(=O)c3ccccc3c(=O)n21` (stereo partly drawn), for which the TGI in the experiment on A549 NSCLC was found to be 47.4 µM; in the experiment on SK-MEL-5 melanoma it was 30.2 µM; with KM12 colon, 27.4 µM; in the experiment with HOP-92 NSCLC, 23.7 µM; with UACC-62 melanoma it was 23 µM; in the experiment on HCT-15 colon, 22.7 µM. Further, the TGI is 29.6 µM in the experiment on OVCAR-5 ovarian; 49 µM in the experiment on OVCAR-8 ovarian; 3.28 µM with NCI-H522 lung; 39.9 µM in the experiment on NCI-H23 lung; 24.1 µM with ACHN renal; 39.6 µM in the experiment with MALME-3M melanoma. The TGI in the experiment with SF-295 CNS was determined as 53.9 µM; in the experiment on SNB-75 CNS, 20.6 µM; in the experiment on HS 578T breast, 76.2 µM; in the experiment on OVCAR-4 ovarian it was 34.6 µM; in the experiment with RPMI-8226 leukemia, 35.6 µM; in the experiment with T-47D breast, 20.9 µM. Also, in the experiment on 786-0 renal, the TGI was 58.9 µM.

As for `COP(=O)(Cc1ccc(/C=C/C#N)o1)OC`, the TGI with A549 NSCLC, in the experiment on KM12 colon, in the experiment with HOP-92 NSCLC, in the experiment with UACC-62 melanoma, with HCT-15 colon and with OVCAR-8 ovarian was > 100 µM throughout. Moreover, the TGI in the experiment on NCI-H522 lung, in the experiment on NCI-H23 lung, in the experiment on MALME-3M melanoma, in the experiment on SNB-75 CNS, in the experiment with HS 578T breast and in the experiment on OVCAR-4 ovarian was > 100 µM in each case. The TGI in the experiment with RPMI-8226 leukemia, in the experiment with T-47D breast and in the experiment with 786-0 renal was > 100 µM throughout.

As for `Cc1cc(NS(=O)(=O)c2ccc(NC(=O)c3ccc4[nH]c5ccccc5c(=O)c4c3)cc2)no1`, the TGI in the experiment on A549 NSCLC, in the experiment with SK-MEL-5 melanoma, in the experiment with KM12 colon, with HOP-92 NSCLC, with UACC-62 melanoma and in the experiment with HCT-15 colon was > 100 µM each time. Further, the TGI in the experiment with OVCAR-5 ovarian, in the experiment on OVCAR-8 ovarian, with NCI-H522 lung, in the experiment with NCI-H23 lung, with ACHN renal and in the experiment with MALME-3M melanoma was > 100 µM throughout. Besides, the TGI in the experiment with SF-295 CNS, with SNB-75 CNS, in the experiment with HS 578T breast, in the experiment on OVCAR-4 ovarian, with RPMI-8226 leukemia and in the experiment on T-47D breast was > 100 µM throughout. Moreover, the TGI in the experiment on 786-0 renal was > 100 µM.

In the case of `Cc1ccc(S(=O)(=O)n2c3c(c4ccccc42)CCN2C(=O)C(S(=O)(=O)c4ccccc4)=CCC32)cc1` (stereo not drawn), the TGI in the experiment with A549 NSCLC was determined as 2.77 µM; in the experiment with SK-MEL-5 melanoma it was 0.337 µM; in the experiment on KM12 colon it was 0.645 µM; in the experiment with HOP-92 NSCLC, 0.315 µM; in the experiment with UACC-62 melanoma, 0.622 µM; with HCT-15 colon, 0.421 µM. Besides, the TGI in the experiment with OVCAR-5 ovarian came out at 0.581 µM; in the experiment on OVCAR-8 ovarian, 0.328 µM; in the experiment with NCI-H522 lung, 0.567 µM; in the experiment with NCI-H23 lung, 0.335 µM; with ACHN renal, 0.393 µM; with MALME-3M melanoma it was 0.463 µM. Also, the TGI came to 3.49 µM in the experiment with SF-295 CNS; 1.41 µM with SNB-75 CNS; 9.15 µM in the experiment on HS 578T breast; 0.436 µM in the experiment with OVCAR-4 ovarian; 0.749 µM in the experiment on RPMI-8226 leukemia; 0.375 µM in the experiment on T-47D breast. Also, in the experiment with 786-0 renal, the TGI worked out at 0.346 µM.

For the compound `CN(C)Cc1cc(N=Nc2cccc(Cl)c2)ccc1O`, the TGI was 32.2 µM with A549 NSCLC; 14.2 µM in the experiment with SK-MEL-5 melanoma; 22 µM with KM12 colon; 41 µM in the experiment with HOP-92 NSCLC; 13.1 µM in the experiment with UACC-62 melanoma; 20.5 µM in the experiment on HCT-15 colon. Also, the TGI in the experiment on OVCAR-5 ovarian was found to be 30.1 µM; in the experiment on OVCAR-8 ovarian, 28.5 µM; in the experiment with NCI-H522 lung, 23.9 µM; in the experiment with NCI-H23 lung it was 57.9 µM; with ACHN renal, 13.5 µM; in the experiment with MALME-3M melanoma, 31.6 µM. The TGI in the experiment with SF-295 CNS was 27.8 µM; in the experiment on SNB-75 CNS, 39.1 µM; in the experiment on HS 578T breast, 29.4 µM; in the experiment on OVCAR-4 ovarian it was 34.7 µM; in the experiment on RPMI-8226 leukemia it was 55.8 µM; with T-47D breast it was 34 µM. Besides, the TGI in the experiment on 786-0 renal came out at 27.4 µM.

As to `O=C1N(c2ccccc2)C2(c3ccccc3)CC3CCCC13S2` (stereo not drawn), the TGI in the experiment on A549 NSCLC, in the experiment on SK-MEL-5 melanoma, with KM12 colon, in the experiment on HOP-92 NSCLC, in the experiment on UACC-62 melanoma and in the experiment on HCT-15 colon was > 100 µM throughout. The TGI was > 100 µM in the experiment on OVCAR-5 ovarian; > 100 µM with OVCAR-8 ovarian; 75.7 µM in the experiment with NCI-H522 lung; > 100 µM with NCI-H23 lung; > 100 µM in the experiment with ACHN renal; > 100 µM in the experiment on MALME-3M melanoma. Further, the TGI in the experiment on SF-295 CNS was > 100 µM; in the experiment with HS 578T breast, > 100 µM; with OVCAR-4 ovarian, > 100 µM; in the experiment with RPMI-8226 leukemia, 98.8 µM; in the experiment with T-47D breast it was > 100 µM; with 786-0 renal, > 100 µM.

For `O=[N+]([O-])c1ccc2[nH]nc(OCc3ccccn3)c2c1`, the TGI with A549 NSCLC, in the experiment on SK-MEL-5 melanoma, with KM12 colon, in the experiment with HOP-92 NSCLC, in the experiment on UACC-62 melanoma and in the experiment with HCT-15 colon was > 100 µM throughout. Moreover, the TGI in the experiment with OVCAR-5 ovarian, in the experiment on OVCAR-8 ovarian, in the experiment with NCI-H522 lung, with NCI-H23 lung, with ACHN renal and in the experiment on MALME-3M melanoma was > 100 µM each time. In addition, the TGI in the experiment with SF-295 CNS, in the experiment on SNB-75 CNS, with HS 578T breast, with OVCAR-4 ovarian, with RPMI-8226 leukemia and in the experiment on T-47D breast was > 100 µM throughout. Also, the TGI with 786-0 renal was > 100 µM.
